Values quoted from earlier work, collected in US6455557B1 (Elan Pharmaceuticals, Inc., priority 2001, dated 2002).
Where two headings read alike, the source gives them in different places.

Experiments:
[1] = not given; remark: listed apart in the source
[2] = tested on: plasma proteins; settings: independent of concentration over the therapeutic range
[3] = not given; remark: listed apart in the source
[4] = oral administration, tablet formulation

Clc1ccc2nsnc2c1NC1=NCCN1 [tizanidine, 5-chloro-4-(2-imidazolin-2-ylamino)-2,1,3-benzothiadiazole]
Muscle strength, as assessed by objective means (patients): not to be adversely affected
Spasm frequency and clonus (patients): reduced
Subjective muscle weakness compared with baclofen or diazepam recipients (patients): reported less often
Time of maximum anti-spastic effects after administration (some studies): ≤ 2 h
Fraction of an administered dose metabolized ([1]; in vivo): approximately 95%
Mean steady state volume of distribution ([1]; intravenous administration, healthy adult volunteers): 2.4 L/kg
Absolute oral bioavailability ([1]; oral): approximately 40%
Half-life [1, 4]: approximately 2.5 hours
Time of peak plasma concentrations after dosing [1, 4]: 1.5 h
Dose linearity of pharmacokinetics ([1]; over a dose of 1 to 20 mg): linear pharmacokinetics
Extent of tizanidine absorption with food ([1]; tablet formulation, with food): not affected
Increase of Cmax by food ([1]; tablet formulation, with food): approximately one-third
Shortening of time to peak concentration by food ([1]; tablet formulation, with food): approximately 40 minutes
Bound to plasma proteins [2]: approximately 30%
Sedation cases rated as severe ([3]; multiple dose, controlled clinical studies): 10%
Patients reporting sedation as an adverse event ([3]; multiple dose, controlled clinical studies, any dose): 48%
Patients continuing to report drowsiness 6 hours following dosing ([3]; single dose of 8 mg): 13%
Patients continuing to report drowsiness 6 hours following dosing ([3]; single dose of 16 mg): 51%
Onset of drowsiness following dosing ([3]; single dose study): 30 min
Peak of drowsiness following dosing ([3]; single dose study): 1.5 h
Patients reporting that they were drowsy during the 6 hour study ([3]; single dose study, 8 mg): 76%
Patients reporting that they were drowsy during the 6 hour study ([3]; single dose study, 16 mg): 92%

Clc1cccc(Cl)c1N=C1NCCN1 [clonidine]
Efficacy in treating spastic conditions (human, in vivo): ineffective
